For 35 compounds, IC50 results are on record in ChEMBL document CHEMBL1144919, “Synthesis of novel thrombin inhibitors. Use of ring-closing metathesis reactions for synthesis of P2 cyclopentene- and cyclohexenedicarboxylic acid derivatives” (J Med Chem, 2003).

A word on the IC50: it is the concentration that inhibits the measured activity by half.

The target of this experiment is Prothrombin (Homo sapiens, UniProt P00734). Nature of the experiment: In vitro inhibitory concentration of compound against human thrombin.

With `CCN(C(=O)C1=CCCC1C(=O)NCc1ccc(C(=N)N)cc1)c1cc(OC)ccc1OC` (stereo not given), the IC50 was determined as 73 nM. With `CCN(C(=O)C1=CCCC1C(=O)NCc1ccc(C(=N)N)cc1)c1ccccc1F` (stereo not given) the figure was 350 nM; with `CCN(C(=O)C1=CCCC1C(=O)NCc1ccc(C(=N)N)cc1)c1cccc(Cl)c1` (stereo not given), 390 nM; with `CCN(C(=O)C1=CCCC1C(=O)NCc1ccc(C(=N)N)cc1)c1cc(Cl)ccc1C` (stereo not given), 220 nM. `CCN(C(=O)C1=C(C(=O)NCc2ccc(C(=N)N)cc2)CCC1)c1cccc(OC)c1` yielded an IC50 of 24000 nM. The result for `CCN(C(=O)C1=CCCC1C(=O)NCc1ccc(C(=N)N)cc1)c1ccccc1C` (stereo not given) reads 680 nM. With `CCN(C(=O)C1=CCCC1C(=O)NCc1ccc(C(=N)N)cc1)c1cccc(F)c1` (stereo not given) the figure was 630 nM; with `N=C(N)c1ccc(CNC(=O)C2=C(C(=O)N3CCc4ccccc43)CCC2)cc1`, above 130000 nM. For the compound `COc1ccc(OC)c(N(C(=O)C2=CCCC2C(=O)NCc2ccc(C(=N)N)cc2)C2CCCCC2)c1` (stereo not given), the IC50 stood at 49 nM. The result for `N=C(N)c1ccc(CNC(=O)C2CCCC=C2C(=O)NC2CCCCC2)cc1` (stereo not given) reads above 130000 nM. The compound `CCN(C(=O)C1=C(C(=O)NCc2ccc(C(=N)N)cc2)CCC1)c1ccccc1` registered an IC50 of 28000 nM. The result for `CCc1cccc(N(CC)C(=O)C2=CCCC2C(=O)NCc2ccc(C(=N)N)cc2)c1` (stereo not given) reads 270 nM; that for `CCN(C(=O)C1=CCC[C@H]1C(=O)NCc1ccc(C(=N)N)cc1)c1cccc(OC)c1`, 120 nM. The result for `N=C(N)c1ccc(CNC(=O)C2CCCC=C2C(=O)N2CCCCC2)cc1` (stereo not given) reads 38000 nM. With `CCN(C(=O)C1=CCCC1C(=O)NCc1ccc(C(=N)N)cc1)c1ccccc1` (stereo not given) the figure was 970 nM; with `CCc1cccc(N(C(=O)C2=CCCC2C(=O)NCc2ccc(C(=N)N)cc2)C2CCCCC2)c1` (stereo not given), 260 nM; with `N=C(N)c1ccc(CNC(=O)C2CCC=C2C(=O)N2CCCCC2)cc1` (stereo not given), 6000 nM.

Take `CCN(C(=O)C1=C(C(=O)NCc2ccc(C(=N)N)cc2)CCC1)c1cc(Cl)ccc1C`: the 50% inhibitory concentration (IC50) amounted to 23000 nM.

Take `CC1Cc2ccccc2N1C(=O)C1=CCCC1C(=O)NCc1ccc(C(=N)N)cc1` (stereo not given): half-maximal inhibition (IC50) was put at 3400 nM. The result for `CCN(C(=O)C1CCC=C1C(=O)NCc1ccc(C(=N)N)cc1)c1cccc(OC)c1` (stereo not given) reads 7800 nM; that for `CCN(C(=O)C1CCC=C1C(=O)NCc1ccc(C(=N)N)cc1)c1ccccc1F` (stereo not given), 93000 nM; that for `CCN(C(=O)C1CCC=C1C(=O)NCc1ccc(C(=N)N)cc1)c1ccccc1` (stereo not given), 16000 nM. The result for `CCN(C(=O)C1=CCCC1C(=O)NCc1ccc(C(=N)N)cc1)c1ccccc1OC` (stereo not given) reads 250 nM. With `N=C(N)c1ccc(CNC(=O)C2CCC=C2C(=O)N2CCc3ccccc32)cc1` (stereo not given) the figure was 4600 nM. As for `CCN(C(=O)C1=CCCCC1C(=O)NCc1ccc(C(=N)N)cc1)c1ccccc1C` (stereo not given), the midpoint of inhibition, the IC50, lay at 4600 nM.

With `CCN(C(=O)C1=CCCC1C(=O)NCc1ccc(C(=N)N)cc1)c1cccc(OC)c1` (stereo not given), the midpoint of inhibition, the IC50, lay at 240 nM. `N=C(N)c1ccc(CNC(=O)C2=C(C(=O)NC3CCCCC3)CCC2)cc1` returned an IC50 of 19000 nM. The result for `N=C(N)c1ccc(CNC(=O)C2CCCC=C2C(=O)Nc2ccccc2)cc1` (stereo not given) reads 130000 nM; that for `CCN(C(=O)C1=CCCCC1C(=O)NCc1ccc(C(=N)N)cc1)c1ccccc1` (stereo not given), 3800 nM; that for `CCN(C(=O)C1=CCCC1C(=O)NCc1ccc(C(=N)N)cc1)c1ccc(OC)cc1` (stereo not given), 940 nM. The compound `Cc1ccccc1N(CC(=O)O)C(=O)C1=CCCC1C(=O)NCc1ccc(C(=N)N)cc1` (stereo not given) had an IC50 of 1300 nM.

`CCN(C(=O)C1=CCCC1C(=O)NCc1ccc(C(=N)N)cc1)c1cc(OC)cc(OC)c1` (stereo not given): inhibition was half-maximal at 210 nM (IC50).

As for `N=C(N)c1ccc(CNC(=O)C2CCCC=C2C(=O)NCc2ccccc2)cc1` (stereo not given), the 50% inhibitory concentration (IC50) is 109000 nM. For `N=C(N)NCCC[C@H](NC(=O)[C@@H]1CCCN1C(=O)C(N)Cc1ccccc1)C(=O)O` (stereo in doubt), the IC50 came to 0.017 nM. `Cc1ccccc1N(CC(=O)O)C(=O)C1=C(C(=O)NCc2ccc(C(=N)N)cc2)CCC1`: the half-maximal inhibitory concentration (IC50) was determined as 120000 nM.
